Experimental data published in patent publication US9034863B2, “Compositions and methods for inhibiting entry of a hepatic virus” (The Board of Trustees of the University of Illinois, priority 2008, dated 2015).
“Also recorded” adds a separate entry of the source.

What was measured:
[1] = test system: HCV genotype 2a subgenomic replicon; assay: HCV sg2a replicon RNA replication in Huh7 cells, RT-qPCR; type: cell-based, Hepatitis C virus (HCV); conditions: 72 hours post-treatment
Description: Huh7 cells, also known as Huh7/scr cells, are well-known in the art (Zhong, et al. (2005) Proc. Natl. Acad. Sci. USA 102, 9294-99; Gastaminza, et al. (2006) J. Virol. 80:11074-81; Zhong, et al. (2006) J. Virol. 80:11082-93; Sainz et al. (2009) PLoS ONE 4:e6561). […] The HCV sg2a replicon was established as previously described (Uprichard, et al. (2006) Virol. J. 3:89). Briefly the HCV genotype 2a subgenomic replicon RNA (psgJFH1; Kato, et al. (2003) Gastroenterology 125:1808-17) was XbaI linearized, in vitro transcribed using […] T7 (Ambion, Austin, Tex.) and transfected into cells using a modified electroporation protocol (Krieger, et al. (2001) J. Virol. 75(10):4614-24). All cells were cultured in complete Dulbecco's modified Eagle's medium (cDMEM) (Hyclone, Logan, Utah) supplemented with 10% fetal bovine serum (FBS) (Hyclone), 100 units/ml penicillin, […] streptomycin, and 2 mM L-glutamine (Gibco Invitrogen, Carlsbad, Calif.) and 500 μg/ml geneticin ((Invitrogen) for HCV replicon cells only).
Total cellular RNA was purified using an ABI PRISM™ 6100 Nucleic Acid PrepStation (Applied Biosystems), as per the manufacturer's instructions. […] HCV JFH-1 and human GAPDH RNA transcript levels were determined relative to a standard curve derived from serial dilutions of plasmid containing the JFH-1 HCV cDNA or the human GAPDH coding sequence, respectively. […]

HCVcc JFH-1 = assay: HCV binding versus internalization, cell-associated HCV RNA (FIG. 1); type: cell-based, Hepatitis C virus (HCV)
Description: Monolayers of human hepatoma cell line Huh7 were inoculated with HCVcc JFH-1 (cell culture produced HCV JFH-1, which is a specific HCV clone isolated from a Japanese Fulminant Hepatitis patient) at an MOI of 0.1 FFU/cell for 6 hours in the presence or absence of increasing concentrations of ezetimibe. Cultures were washed extensively and cell associated RNA was collected 6 and 30 hours post-infection (p.i.) to determine the amount of bound and internalized virus, respectively. […] Results are graphed as means±s.e.m. for triplicate samples. The data presented are representative of three independent experiments. Assay background (i.e., HCV RNA level detected in uninfected samples) is equal to ˜0.5−1.0×10^2 copies/μg total cellular RNA. Significant reduction in HCV RNA levels relative to mock-treated cultures is denoted by a single asterisk (p<0.05, one-way ANOVA and Tukey's post hoc t test).
To decipher whether ezetimibe inhibits HCV cellular binding or subsequent internalization, cell-associated HCV RNA and protein in mock- and ezetimibe-treated HCVcc-infected cultures was examined.

wild-type HCVcc^JFH-1 = assay: Infection of Huh7 cells with wild-type HCVcc JFH-1, intracellular HCV RNA; type: cell-based, Hepatitis C virus (HCV); conditions: 30 μM, 48 hours post-infection
Description: Studies have shown that a G451R mutation in the viral envelope glycoprotein (E2) results in HCV virions of […] density and faster infection kinetics (thong, et al. (2006) J. Virol. 80:11082-11093). […] Thus, if ezetimibe was blocking HCV entry via an SR-B1 mediated mechanism, it would be expected that the mutant G451R virus would be less susceptible to the effects of ezetimibe. As a result, experiments were performed to assess the antiviral efficacy of ezetimibe against the SR-B1-independent HCVcc^G451R virus. Monolayers of Huh7 cells were inoculated with either wild-type HCVcc^JFH-1 or HCVcc^G451R at an MOI of 0.01 FFU/cell for 12 hours. Ezetimibe treatment at concentrations of 15 or 30 μM was initiated (and then continued) either 6 hours prior to infection, during the 12 hour incubation of the virus on the cells, or immediately following the 12 hour viral inoculation period. Ezetimibe at a concentration of 30 μM inhibited HCVcc^JFH-1 infection approximately 10-fold at 48 hours post-infection.

HCVcc = assay: Steady-state HCVcc RNA levels in chronically infected Huh7 cultures, 24-96 h; type: cell-based, Hepatitis C virus (HCV); conditions: 30 μM, 24-96 hours post-treatment
Description: Huh7 cultures were inoculated with HCVcc at an MOI of 0.01 FFU cell-1. Infected cultures were maintained for an additional 10 days to allow HCV RNA to reach steady-state levels. Cultures were then vehicle-treated, treated with ezetimibe (30 μM) or 2′-C-methylcytidine (12.5 μM). Fresh medium containing the specified treatments was replenished every day throughout the course of the experiment. Intracellular RNA was collected from triplicate wells at 24, 48, 72 and 96 hours post-treatment and HCV RNA was quantified by RT-qPCR and normalized to GAPDH.

HCV = HCV infection initiation in chimeric mice transplanted with human hepatocytes; type: in vivo

O=C1[C@H](CC[C@H](O)c2ccc(F)cc2)[C@@H](c2ccc(O)cc2)N1c1ccc(F)cc1 [ezetimibe, 1-(4-fluorophenyl)-(3R)-[3-(4-fluorophenyl)-(3S)-hydroxypropyl]-(45)-(4-hydroxyphenyl)-2-azetidinone]
sg2a HCV RNA levels [1]: did not inhibit HCV subgenomic RNA replication; also recorded: no significant reduction | virion binding (cell-associated HCV RNA) (HCVcc JFH-1; 6 hours p.i.): not binding | HCV entry/internalization (HCV RNA expansion, de novo NS5A expression) (HCVcc JFH-1; later time points (30 hours p.i.)): inhibits HCV internalization | inhibition of HCVcc JFH-1 infection (wild-type HCVcc^JFH-1): approximately 10 fold | steady state HCVcc RNA levels (HCVcc): did not inhibit steady state HCVcc RNA levels | HCV infection initiation (HCV): inhibits HCV infection initiation
